Data: patent US20140094424A1, “MICROBICIDAL COMPOSITIONS AND METHODS OF PRODUCTION USE THEREOF” (priority 2011, published 2014)
Read-outs that look alike come from different tables or passages of the source.

What was measured:
Ralstonia pickettii (AU) = type: cell-based
Description: The stock organisms were thawed and subbed prior to beginning the MBC test. Molds were subbed to SDA plates one week before, and the bacteria were subbed to TAT agar plates 24 hours prior to the start of the test. All plates were incubated at 32 degrees C.
Each bacterial organism was inoculated into 40 ml sterile saline in a centrifuge tube to create a density of MacFarland #1. Two serial dilutions of 1:100 were then made, resulting in 10^−2 and 10^−4 concentrations. Each dilution was vortexed before it was sampled, and sterile Eppendorf pipette tips were used to make each transfer. The 10^−4 dilution was spiral plated to yield the initial inoculum concentration.
MBC trays were set up with the prepared test reagent. Using a Matrix pipettor, 100 μl aliquots of reagent were distributed into the wells, diluting the amount of preservative from 100% to 10% increments, using unpreserved reagent as the diluent. In one row, 100% non-preserved reagent acted as a positive control and served as a benchmark for a full mat of growth. In well #12H, 100 μl unpreserved reagent was pipetted, and this well was not inoculated with organisms, as it served as the negative control. Once all of the trays were prepared, the prepared bacteria/mold suspensions were poured into the MBC inoculating trays. These were placed onto the reagent trays, and 0.01 ml inoculum was introduced into the 100 μl of reagent in each well.
This was done by dipping a sterile cotton swab into each well, and absorbing all of the liquid in the well. The swab was rolled onto a TAT agar plate ensuring that the entire swab touches the agar. Plates ware incubated at 32 degrees C. for 48 hours to 7 days, depending on the organism. Observations for growth were performed by a scoring matrix using + for a full mat, +/− for some growth, a numerical value for an actual colony count, and—for no growth.
Below are tables that contain the data obtained in Example 1. The MBC test is scored by (+) indicating a full grown mat of organisms, equivalent to the organisms in the unpreserved reagent. (+/−) indicates there is some kill evident disturbing that mat or bringing the quantities down to an almost countable level. An actual number is the actual number of colonies growing at that concentration of preservative. (−) indicates no growth found. The MBC trays were stored at room temperature for the entire test.
The materials and methods and analysis of the MBC test were the same as in Example 1.

[1] = system: creatinine biosensor (creatinine amidohydrolase, creatinine amidinohydrolase and sarcosine oxidase); assay: Effect on enzymatic activity of a creatinine biosensor (rate of O2% decrease); type: biochemical; settings: 210 μM gentamicin, FIG. 1
Description: In FIG. 1, the effects of various concentrations of gentamicin on the enzymatic activity of a creatinine biosensor (comprising the three enzymes creatinine amidohydrolase, creatinine amidinohydrolase and sarcosine oxidase) were determined. In FIG. 2, the effects of various concentrations of propionate on the enzymatic activity of a creatinine biosensor (comprising three enzymes) were determined.
In both instances, a decreasing rate of O2% is an indicator of enzyme activity; the faster the rate of O2% decrease, the higher enzymatic activity is.

Cc1cc(NS(=O)(=O)c2ccc(N)cc2)no1 [Sulfamethoxazole, sulfamethoxazole]
+: MBC test growth score (Ralstonia pickettii (AU); 10% preservative, 8 hour) | MBC test growth score (Ralstonia pickettii (AU); 10% preservative, 24 hour) | MBC test growth score (Ralstonia pickettii (AU); 10% preservative, 48 hour) | MBC test growth score (Ralstonia pickettii (AU); 10% preservative, 72 hour) | MBC test growth score (Ralstonia pickettii (AU); 20% preservative, 8 hour) | MBC test growth score (Ralstonia pickettii (AU); 20% preservative, 24 hour) | MBC test growth score (Ralstonia pickettii (AU); 20% preservative, 48 hour) | MBC test growth score (Ralstonia pickettii (AU); 20% preservative, 72 hour) | MBC test growth score (Ralstonia pickettii (AU); 30% preservative, 8 hour) | MBC test growth score (Ralstonia pickettii (AU); 30% preservative, 24 hour) | MBC test growth score (Ralstonia pickettii (AU); 30% preservative, 48 hour) | MBC test growth score (Ralstonia pickettii (AU); 30% preservative, 72 hour) | MBC test growth score (Ralstonia pickettii (AU); 40% preservative, 8 hour) | MBC test growth score (Ralstonia pickettii (AU); 40% preservative, 24 hour) | MBC test growth score (Ralstonia pickettii (AU); 40% preservative, 48 hour) | MBC test growth score (Ralstonia pickettii (AU); 40% preservative, 72 hour) | MBC test growth score (Ralstonia pickettii (AU); 50% preservative, 8 hour) | MBC test growth score (Ralstonia pickettii (AU); 50% preservative, 24 hour) | MBC test growth score (Ralstonia pickettii (AU); 50% preservative, 48 hour) | MBC test growth score (Ralstonia pickettii (AU); 50% preservative, 72 hour) | MBC test growth score (Ralstonia pickettii (AU); 60% preservative, 8 hour) | MBC test growth score (Ralstonia pickettii (AU); 60% preservative, 24 hour) | MBC test growth score (Ralstonia pickettii (AU); 60% preservative, 48 hour) | MBC test growth score (Ralstonia pickettii (AU); 60% preservative, 72 hour) | MBC test growth score (Ralstonia pickettii (AU); 70% preservative, 8 hour) | MBC test growth score (Ralstonia pickettii (AU); 70% preservative, 24 hour) | MBC test growth score (Ralstonia pickettii (AU); 70% preservative, 48 hour) | MBC test growth score (Ralstonia pickettii (AU); 70% preservative, 72 hour) | MBC test growth score (Ralstonia pickettii (AU); 80% preservative, 8 hour) | MBC test growth score (Ralstonia pickettii (AU); 80% preservative, 24 hour) | MBC test growth score (Ralstonia pickettii (AU); 80% preservative, 48 hour) | MBC test growth score (Ralstonia pickettii (AU); 80% preservative, 72 hour) | MBC test growth score (Ralstonia pickettii (AU); 90% preservative, 8 hour) | MBC test growth score (Ralstonia pickettii (AU); 90% preservative, 24 hour) | MBC test growth score (Ralstonia pickettii (AU); 90% preservative, 48 hour) | MBC test growth score (Ralstonia pickettii (AU); 90% preservative, 72 hour) | MBC test growth score (Ralstonia pickettii (AU); 100% preservative, 8 hour) | MBC test growth score (Ralstonia pickettii (AU); 100% preservative, 24 hour) | MBC test growth score (Ralstonia pickettii (AU); 100% preservative, 48 hour) | MBC test growth score (Ralstonia pickettii (AU); 100% preservative, 72 hour)

[N-]=[N+]=[N-] [Sodium Azide, sodium azide]
8: MBC test growth score (Ralstonia pickettii (AU); 70% preservative, 72 hour)
4: MBC test growth score (Ralstonia pickettii (AU); 90% preservative, 72 hour)
No kill @ 100%: total kill at % preservative (MBC) (Ralstonia pickettii (AU); at 72 hours, listed as Na Azide)
+/−: MBC test growth score (Ralstonia pickettii (AU); 20% preservative, 72 hour) | MBC test growth score (Ralstonia pickettii (AU); 30% preservative, 48 hour) | MBC test growth score (Ralstonia pickettii (AU); 30% preservative, 72 hour) | MBC test growth score (Ralstonia pickettii (AU); 40% preservative, 48 hour) | MBC test growth score (Ralstonia pickettii (AU); 40% preservative, 72 hour) | MBC test growth score (Ralstonia pickettii (AU); 50% preservative, 48 hour) | MBC test growth score (Ralstonia pickettii (AU); 50% preservative, 72 hour) | MBC test growth score (Ralstonia pickettii (AU); 60% preservative, 48 hour) | MBC test growth score (Ralstonia pickettii (AU); 70% preservative, 48 hour) | MBC test growth score (Ralstonia pickettii (AU); 80% preservative, 24 hour) | MBC test growth score (Ralstonia pickettii (AU); 80% preservative, 48 hour) | MBC test growth score (Ralstonia pickettii (AU); 90% preservative, 24 hour) | MBC test growth score (Ralstonia pickettii (AU); 90% preservative, 48 hour) | MBC test growth score (Ralstonia pickettii (AU); 100% preservative, 24 hour) | MBC test growth score (Ralstonia pickettii (AU); 100% preservative, 48 hour)
10: MBC test growth score (Ralstonia pickettii (AU); 60% preservative, 72 hour)
7: MBC test growth score (Ralstonia pickettii (AU); 80% preservative, 72 hour)
2: MBC test growth score (Ralstonia pickettii (AU); 100% preservative, 72 hour)
+: MBC test growth score (Ralstonia pickettii (AU); 10% preservative, 8 hour) | MBC test growth score (Ralstonia pickettii (AU); 10% preservative, 24 hour) | MBC test growth score (Ralstonia pickettii (AU); 10% preservative, 48 hour) | MBC test growth score (Ralstonia pickettii (AU); 10% preservative, 72 hour) | MBC test growth score (Ralstonia pickettii (AU); 20% preservative, 8 hour) | MBC test growth score (Ralstonia pickettii (AU); 20% preservative, 24 hour) | MBC test growth score (Ralstonia pickettii (AU); 20% preservative, 48 hour) | MBC test growth score (Ralstonia pickettii (AU); 30% preservative, 8 hour) | MBC test growth score (Ralstonia pickettii (AU); 30% preservative, 24 hour) | MBC test growth score (Ralstonia pickettii (AU); 40% preservative, 8 hour) | MBC test growth score (Ralstonia pickettii (AU); 40% preservative, 24 hour) | MBC test growth score (Ralstonia pickettii (AU); 50% preservative, 8 hour) | MBC test growth score (Ralstonia pickettii (AU); 50% preservative, 24 hour) | MBC test growth score (Ralstonia pickettii (AU); 60% preservative, 8 hour) | MBC test growth score (Ralstonia pickettii (AU); 60% preservative, 24 hour) | MBC test growth score (Ralstonia pickettii (AU); 70% preservative, 8 hour) | MBC test growth score (Ralstonia pickettii (AU); 70% preservative, 24 hour) | MBC test growth score (Ralstonia pickettii (AU); 80% preservative, 8 hour) | MBC test growth score (Ralstonia pickettii (AU); 90% preservative, 8 hour) | MBC test growth score (Ralstonia pickettii (AU); 100% preservative, 8 hour)

gentamicin
did not inactivate enzymatic activity: effect on enzymatic activity of the three enzymes in the creatinine biosensor [1]
−: MBC test growth score (Ralstonia pickettii (AU); 10% preservative, 8 hour) | MBC test growth score (Ralstonia pickettii (AU); 10% preservative, 24 hour) | MBC test growth score (Ralstonia pickettii (AU); 10% preservative, 48 hour) | MBC test growth score (Ralstonia pickettii (AU); 10% preservative, 72 hour) | MBC test growth score (Ralstonia pickettii (AU); 20% preservative, 8 hour) | MBC test growth score (Ralstonia pickettii (AU); 20% preservative, 24 hour) | MBC test growth score (Ralstonia pickettii (AU); 20% preservative, 48 hour) | MBC test growth score (Ralstonia pickettii (AU); 20% preservative, 72 hour) | MBC test growth score (Ralstonia pickettii (AU); 30% preservative, 8 hour) | MBC test growth score (Ralstonia pickettii (AU); 30% preservative, 24 hour) | MBC test growth score (Ralstonia pickettii (AU); 30% preservative, 48 hour) | MBC test growth score (Ralstonia pickettii (AU); 30% preservative, 72 hour) | MBC test growth score (Ralstonia pickettii (AU); 40% preservative, 8 hour) | MBC test growth score (Ralstonia pickettii (AU); 40% preservative, 24 hour) | MBC test growth score (Ralstonia pickettii (AU); 40% preservative, 48 hour) | MBC test growth score (Ralstonia pickettii (AU); 40% preservative, 72 hour) | MBC test growth score (Ralstonia pickettii (AU); 50% preservative, 8 hour) | MBC test growth score (Ralstonia pickettii (AU); 50% preservative, 24 hour) | MBC test growth score (Ralstonia pickettii (AU); 50% preservative, 48 hour) | MBC test growth score (Ralstonia pickettii (AU); 50% preservative, 72 hour) | MBC test growth score (Ralstonia pickettii (AU); 60% preservative, 8 hour) | MBC test growth score (Ralstonia pickettii (AU); 60% preservative, 24 hour) | MBC test growth score (Ralstonia pickettii (AU); 60% preservative, 48 hour) | MBC test growth score (Ralstonia pickettii (AU); 60% preservative, 72 hour) | MBC test growth score (Ralstonia pickettii (AU); 70% preservative, 8 hour) | MBC test growth score (Ralstonia pickettii (AU); 70% preservative, 24 hour) | MBC test growth score (Ralstonia pickettii (AU); 70% preservative, 48 hour) | MBC test growth score (Ralstonia pickettii (AU); 70% preservative, 72 hour) | MBC test growth score (Ralstonia pickettii (AU); 80% preservative, 8 hour) | MBC test growth score (Ralstonia pickettii (AU); 80% preservative, 24 hour) | MBC test growth score (Ralstonia pickettii (AU); 80% preservative, 48 hour) | MBC test growth score (Ralstonia pickettii (AU); 80% preservative, 72 hour) | MBC test growth score (Ralstonia pickettii (AU); 90% preservative, 8 hour) | MBC test growth score (Ralstonia pickettii (AU); 90% preservative, 24 hour) | MBC test growth score (Ralstonia pickettii (AU); 90% preservative, 48 hour) | MBC test growth score (Ralstonia pickettii (AU); 90% preservative, 72 hour) | MBC test growth score (Ralstonia pickettii (AU); 100% preservative, 8 hour) | MBC test growth score (Ralstonia pickettii (AU); 100% preservative, 24 hour) | MBC test growth score (Ralstonia pickettii (AU); 100% preservative, 48 hour) | MBC test growth score (Ralstonia pickettii (AU); 100% preservative, 72 hour)
